The text below walks through data of paper PMC4581874 (PLoS ONE, 2015).

The target of one assay is T1, FGFR1 (Homo sapiens, UniProt P11362).
T1 construct: purchased Millipore UK Ltd., Dundee, UK (now Eurofins Scientific); KinaseProfiler / IC50 Profiler service
Description: In vitro kinase assay, FGFR1. It is filed as biochemical. How it is done:
(§1) All kinase assays were carried out using KinaseProfiler^TM and IC50 Profiler^TM (Millipore UK Ltd., Dundee, UK. Now Eurofins Scientific, Dundee, UK). All IC50 data were presented as the mean values. The Curves obtained to determine IC50 values were shown in Supporting Information (S1 Fig).

For another assay, the target named is T2, Lyn (h) (Homo sapiens, UniProt P07948).
T2 construct: purchased Millipore (now Eurofins) KinaseProfiler / IC50 Profiler
Description: Kinase profile, Lyn. The class given is biochemical. As to conditions: mean ± S.D. As to the method: as §1

Another assay addresses T3, CaMKIIβ (h) (Homo sapiens, UniProt Q13554).
T3 construct: purchased Millipore (now Eurofins) KinaseProfiler / IC50 Profiler
Description: Kinase profile, CaMKIIβ. The class given is biochemical. As to conditions: mean ± S.D. As to the method: as §1

A further assay has as its target T4, PKG1β (h) (Homo sapiens, UniProt Q13976).
T4 construct: purchased Millipore (now Eurofins) KinaseProfiler / IC50 Profiler
In words: Kinase profile, PKG1β. It is filed as biochemical. As to conditions: mean ± S.D. How it is done: as §1

The next assay has as its target T5, p70S6K (h) (Homo sapiens, UniProt P23443).
T5 construct: purchased Millipore (now Eurofins) KinaseProfiler / IC50 Profiler
In words: Kinase profile, p70S6K. The class given is biochemical. The settings on record: mean ± S.D. How it is done: as §1

The target in the next assay is T6, ROCK-II (h) (Homo sapiens, UniProt O75116).
T6 construct: purchased Millipore (now Eurofins) KinaseProfiler / IC50 Profiler
Description: Kinase profile, ROCK-II. It is filed as biochemical. As to conditions: mean ± S.D. How it is done: as §1

In another assay the target is T7, PhKγ2 (h) (Homo sapiens, UniProt P15735).
T7 construct: purchased Millipore (now Eurofins) KinaseProfiler / IC50 Profiler
In words: Kinase profile, PhKγ2. It is filed as biochemical. The settings on record: mean ± S.D. How it is done: as §1

A further assay concerns HUVECs. In words: VEGF-induced tube formation assay. It is filed as cell-based, human. The settings on record: VEGF 50 ng/mL, compound 1 μg/mL. How it is done: For analyzing of the antagonistic response to VEGF, tube formation, scratch wound migration, and cell proliferation assays were performed after the exposure of HUVECs to 50 ng/mL VEGF-A (R&D Systems, Minneapolis, MN), which induced a significant angiogenic response. For the cell proliferation assays, cells were incubated overnight in endothelial basal media (EBM; Lonza, Walkersville, MD, USA) containing 0.5% FBS or supplemented with VEGF-A and/or VEGF inhibitors. The cells were washed with PBS and counted in 4 random microscope fields. The tube formation assay was performed by seeding cells on Matrigel-coated plates (BD Bioscience, Bedford, MA, USA) and incubating in EBM containing 0.5% FBS or supplemented with VEGF-A and/or VEGF inhibitors. After overnight incubation, tubule networks were quantified by measuring the tubule length in 4 random microscope fields. For the analysis of scratch wound migration, confluent cell monolayers grown on 6-well plates were scratched using a micropipette tip. […] Cell migration was observed by optical microscopy and quantified by measuring the number of cells that had migrated from the wound edges.
In (A) and (B), the number of cells was expressed as the fold change with respect to the number of cells seeded at day 0. […]

Another assay concerns the target T8, CaMKIV (h) (Homo sapiens, UniProt Q16566).
T8 construct: purchased Millipore (now Eurofins) KinaseProfiler / IC50 Profiler
In words: Kinase profile, CaMKIV. The class given is biochemical. The settings on record: mean ± S.D. As to the method:
as §1

Another assay addresses T9, PKCη (h) (Homo sapiens, UniProt P24723).
T9 construct: purchased Millipore (now Eurofins) KinaseProfiler / IC50 Profiler
Description: Kinase profile, PKCη. It is filed as biochemical. As to conditions: mean ± S.D. How it is done: as §1

What is called inhibition is the change of the read-out against control, counted positive when it falls. Broadly, the IC50 is the concentration needed to halve the response being measured. Low readings indicate greater potency, high ones weaker potency.

T1 sequence (P11362 22-822): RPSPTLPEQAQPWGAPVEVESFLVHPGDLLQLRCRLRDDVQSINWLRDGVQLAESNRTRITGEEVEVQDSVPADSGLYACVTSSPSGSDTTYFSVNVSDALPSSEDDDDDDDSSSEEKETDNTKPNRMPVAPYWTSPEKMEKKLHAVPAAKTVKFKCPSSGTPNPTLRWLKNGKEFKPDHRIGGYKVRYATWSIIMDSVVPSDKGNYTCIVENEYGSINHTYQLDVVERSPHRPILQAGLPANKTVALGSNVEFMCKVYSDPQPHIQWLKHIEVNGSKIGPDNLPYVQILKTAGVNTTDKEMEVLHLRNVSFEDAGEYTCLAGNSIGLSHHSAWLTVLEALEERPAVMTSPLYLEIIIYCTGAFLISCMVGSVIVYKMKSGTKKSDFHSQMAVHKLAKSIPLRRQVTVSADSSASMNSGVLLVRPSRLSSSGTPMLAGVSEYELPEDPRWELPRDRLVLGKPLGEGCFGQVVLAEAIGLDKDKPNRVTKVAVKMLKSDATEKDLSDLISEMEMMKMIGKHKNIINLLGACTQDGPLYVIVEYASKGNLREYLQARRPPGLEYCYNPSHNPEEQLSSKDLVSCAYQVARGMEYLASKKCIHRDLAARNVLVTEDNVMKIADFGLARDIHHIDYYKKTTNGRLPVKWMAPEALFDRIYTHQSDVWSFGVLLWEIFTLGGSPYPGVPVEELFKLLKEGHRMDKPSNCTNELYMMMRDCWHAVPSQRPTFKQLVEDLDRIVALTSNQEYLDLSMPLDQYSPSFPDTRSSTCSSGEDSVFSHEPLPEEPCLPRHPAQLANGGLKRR
T7 sequence (P15735 whole entry): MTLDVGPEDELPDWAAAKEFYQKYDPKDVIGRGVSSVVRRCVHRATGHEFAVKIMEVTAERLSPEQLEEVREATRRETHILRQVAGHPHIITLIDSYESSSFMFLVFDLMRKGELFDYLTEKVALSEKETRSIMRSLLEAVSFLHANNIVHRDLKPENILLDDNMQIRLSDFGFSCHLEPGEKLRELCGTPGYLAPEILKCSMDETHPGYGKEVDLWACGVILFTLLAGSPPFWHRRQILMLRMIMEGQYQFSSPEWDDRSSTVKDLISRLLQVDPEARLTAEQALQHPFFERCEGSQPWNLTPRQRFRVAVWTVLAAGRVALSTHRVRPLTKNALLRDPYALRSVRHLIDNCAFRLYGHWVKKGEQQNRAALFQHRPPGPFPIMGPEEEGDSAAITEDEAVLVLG
T2 sequence (P07948 whole entry): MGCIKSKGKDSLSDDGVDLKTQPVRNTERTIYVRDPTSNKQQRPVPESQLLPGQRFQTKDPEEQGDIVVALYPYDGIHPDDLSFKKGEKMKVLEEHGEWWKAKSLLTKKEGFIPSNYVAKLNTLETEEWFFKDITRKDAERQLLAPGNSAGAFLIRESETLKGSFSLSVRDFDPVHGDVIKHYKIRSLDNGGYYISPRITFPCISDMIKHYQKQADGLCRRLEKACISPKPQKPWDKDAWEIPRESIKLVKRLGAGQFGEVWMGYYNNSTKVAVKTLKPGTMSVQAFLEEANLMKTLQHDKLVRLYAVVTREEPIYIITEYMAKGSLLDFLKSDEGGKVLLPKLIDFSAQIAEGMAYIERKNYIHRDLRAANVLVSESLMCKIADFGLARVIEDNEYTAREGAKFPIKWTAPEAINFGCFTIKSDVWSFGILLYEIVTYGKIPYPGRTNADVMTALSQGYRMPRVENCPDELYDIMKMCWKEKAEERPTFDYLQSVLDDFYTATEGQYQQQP
T5 sequence (P23443 whole entry): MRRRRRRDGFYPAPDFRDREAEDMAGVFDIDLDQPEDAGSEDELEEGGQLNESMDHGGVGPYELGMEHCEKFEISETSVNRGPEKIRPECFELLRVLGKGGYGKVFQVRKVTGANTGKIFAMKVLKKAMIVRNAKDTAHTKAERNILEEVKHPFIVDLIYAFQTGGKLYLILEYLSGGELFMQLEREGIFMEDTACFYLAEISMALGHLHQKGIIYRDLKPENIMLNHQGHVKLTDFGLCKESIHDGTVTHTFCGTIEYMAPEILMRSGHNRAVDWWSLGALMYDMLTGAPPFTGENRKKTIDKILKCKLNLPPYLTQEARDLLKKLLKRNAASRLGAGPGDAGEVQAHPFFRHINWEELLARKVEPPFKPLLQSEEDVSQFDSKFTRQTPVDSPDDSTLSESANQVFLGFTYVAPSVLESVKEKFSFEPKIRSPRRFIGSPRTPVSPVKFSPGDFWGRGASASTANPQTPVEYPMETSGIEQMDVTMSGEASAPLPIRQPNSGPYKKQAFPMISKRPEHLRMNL
T6 sequence (O75116 whole entry): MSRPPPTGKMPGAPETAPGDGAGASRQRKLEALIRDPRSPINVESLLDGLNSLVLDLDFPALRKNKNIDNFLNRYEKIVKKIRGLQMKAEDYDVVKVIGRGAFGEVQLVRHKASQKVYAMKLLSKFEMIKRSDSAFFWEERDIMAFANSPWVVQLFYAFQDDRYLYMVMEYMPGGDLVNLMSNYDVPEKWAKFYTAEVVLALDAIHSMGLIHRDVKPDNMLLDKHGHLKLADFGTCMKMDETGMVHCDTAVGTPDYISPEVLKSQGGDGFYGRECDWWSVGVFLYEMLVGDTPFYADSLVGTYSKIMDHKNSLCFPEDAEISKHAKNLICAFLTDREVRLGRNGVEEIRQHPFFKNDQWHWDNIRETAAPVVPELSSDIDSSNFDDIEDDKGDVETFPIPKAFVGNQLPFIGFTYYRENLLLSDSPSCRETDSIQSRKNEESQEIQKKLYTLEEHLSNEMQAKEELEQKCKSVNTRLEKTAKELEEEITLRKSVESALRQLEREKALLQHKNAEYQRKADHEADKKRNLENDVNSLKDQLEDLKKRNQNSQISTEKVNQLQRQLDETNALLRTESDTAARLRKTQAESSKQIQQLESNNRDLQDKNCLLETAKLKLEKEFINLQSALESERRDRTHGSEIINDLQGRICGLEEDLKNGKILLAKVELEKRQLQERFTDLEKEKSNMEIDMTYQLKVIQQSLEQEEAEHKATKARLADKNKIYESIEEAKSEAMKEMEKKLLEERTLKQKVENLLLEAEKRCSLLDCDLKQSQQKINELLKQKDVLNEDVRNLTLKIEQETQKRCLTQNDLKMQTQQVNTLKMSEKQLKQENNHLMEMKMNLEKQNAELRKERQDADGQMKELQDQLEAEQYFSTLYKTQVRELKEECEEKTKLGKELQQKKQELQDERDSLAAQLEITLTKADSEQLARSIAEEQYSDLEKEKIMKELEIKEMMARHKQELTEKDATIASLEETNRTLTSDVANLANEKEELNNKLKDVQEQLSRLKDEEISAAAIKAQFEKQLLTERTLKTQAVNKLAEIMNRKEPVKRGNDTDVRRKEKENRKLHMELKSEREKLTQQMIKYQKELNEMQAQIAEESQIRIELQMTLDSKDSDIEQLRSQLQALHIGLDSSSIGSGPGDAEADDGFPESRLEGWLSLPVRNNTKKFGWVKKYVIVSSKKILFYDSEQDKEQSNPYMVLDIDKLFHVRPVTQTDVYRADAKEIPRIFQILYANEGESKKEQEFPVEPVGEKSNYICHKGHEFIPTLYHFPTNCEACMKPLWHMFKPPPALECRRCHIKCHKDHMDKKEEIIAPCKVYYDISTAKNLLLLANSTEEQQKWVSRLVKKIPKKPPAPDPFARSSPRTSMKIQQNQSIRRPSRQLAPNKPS
T8 sequence (Q16566 whole entry): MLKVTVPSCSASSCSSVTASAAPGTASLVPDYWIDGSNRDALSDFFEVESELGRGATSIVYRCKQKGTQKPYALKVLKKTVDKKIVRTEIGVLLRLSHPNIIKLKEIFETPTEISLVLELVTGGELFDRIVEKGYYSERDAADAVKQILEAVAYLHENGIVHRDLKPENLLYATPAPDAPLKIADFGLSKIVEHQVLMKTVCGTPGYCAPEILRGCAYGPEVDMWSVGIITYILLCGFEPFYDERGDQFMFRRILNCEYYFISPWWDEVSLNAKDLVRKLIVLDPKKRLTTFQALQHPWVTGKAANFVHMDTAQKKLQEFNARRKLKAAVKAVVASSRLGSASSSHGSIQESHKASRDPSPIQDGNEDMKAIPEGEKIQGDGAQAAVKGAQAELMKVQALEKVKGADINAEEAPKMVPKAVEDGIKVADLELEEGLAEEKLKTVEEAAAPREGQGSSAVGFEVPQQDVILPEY
T4 sequence (Q13976 1-686 isoform Q13976-2): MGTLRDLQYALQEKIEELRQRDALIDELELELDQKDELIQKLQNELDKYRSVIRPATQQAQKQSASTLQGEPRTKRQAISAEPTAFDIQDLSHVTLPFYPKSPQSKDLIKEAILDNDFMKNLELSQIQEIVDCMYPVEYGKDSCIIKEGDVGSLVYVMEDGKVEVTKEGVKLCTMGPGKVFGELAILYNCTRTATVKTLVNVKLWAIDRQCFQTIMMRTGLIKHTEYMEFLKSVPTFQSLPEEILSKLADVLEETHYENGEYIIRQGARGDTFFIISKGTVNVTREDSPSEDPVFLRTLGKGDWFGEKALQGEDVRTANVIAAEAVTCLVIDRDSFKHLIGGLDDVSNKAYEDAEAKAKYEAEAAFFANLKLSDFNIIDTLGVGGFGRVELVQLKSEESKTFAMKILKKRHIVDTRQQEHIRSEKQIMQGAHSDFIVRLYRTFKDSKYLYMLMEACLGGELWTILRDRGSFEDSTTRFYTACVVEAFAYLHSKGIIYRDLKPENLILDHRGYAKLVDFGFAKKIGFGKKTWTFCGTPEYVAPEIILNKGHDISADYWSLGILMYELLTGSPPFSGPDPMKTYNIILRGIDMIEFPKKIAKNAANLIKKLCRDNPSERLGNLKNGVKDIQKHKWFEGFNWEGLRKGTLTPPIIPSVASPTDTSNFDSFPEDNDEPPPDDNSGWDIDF

Turning to `Cc1ccc(Nc2nccc(N(C)c3ccc4[nH]ccc4c3)n2)cc1S(N)(=O)=O` [MKP101], the inhibition at 1 µM was determined as 98 ± 1% at FGFR1 (1 μM, mean ± S.D., read-out: % inhibition at 1 μM, FGFR1 (h)); 98 ± 1% on Lyn (h); 17 ± 4% on CaMKIIβ (h); 7 ± 1% at PKG1β (h); 20 ± 3% at p70S6K (h); 4 ± 1% against ROCK-II (h). Besides, the inhibition at 1 µM against PhKγ2 (h), against CaMKIV (h) and against PKCη (h) was 0% each time. On FGFR1 (in vitro kinase assay), the 50% inhibitory concentration (IC50) came to 28 nM. Further, the “Effect on VEGF-induced increase in tube formation” value with HUVECs is “significantly inhibited”.
